For one assay, the system named is PC3 cells. The assay is described as follows: NAMPT Cell Proliferation Assay (Cell Titer Glo). Conditions: Homo sapiens, PC-3, 120 h, incubated 5 days, cell viability. Format: cell-based. How it is done:
NAMPT Cell Proliferation Assay
PC3 cells were seeded in 96-well black plates (Corning #3904) at 500 cells/well in 90 µl of RPMI media containing 10% heat-inactivated FBS and incubated overnight at 37° C. and 5% CO2 to allow cells to attach to wells. The following day, test compounds were serially diluted in neat DMSO to 1000× final concentrations prior to dilution with RPMI media to 10× and 1% DMSO. Ten L of the 10× compounds were then transferred to wells containing cells to produce a dose response of 10-fold dilutions from […]. Cells were incubated for 5 days at 37° C. and 5% CO2, then cell viability was measured using Cell Titer Glo reagent (Promega #G7571). Percent inhibition values were calculated and fitted to a sigmoidal dose response curves using Assay Explorer software to determine IC50s.
(In general: ATP-based viability assays read luminescence as a measure of living cells.)

The next assay concerns the target NAMPT (Homo sapiens, UniProt P43490). The assay is described as follows: Time-Resolved Fluorescence Resonance Energy Transfer (TR-FRET) Binding Assay of NAMPT. Conditions: 6.8 nM NAMPT, 200 nM probe, equilibrated 3 hours, no substrates. The procedure:
Determination of the utility of compounds having Formula (I) as binders to and inhibitors of NAMPT was performed using Time-Resolved Fluorescence Resonance Energy Transfer (TR-FRET) binding assays.
Time-Resolved Fluorescence Resonance Energy Transfer (TR-FRET) Binding Assay of NAMPT
Six L were transferred to 384-well low-volume plates ([…] #3673). To this, 12 L of a 1.5× solution containing enzyme, probe and antibody were added. […] Reactions were equilibrated at room temperature for 3 hours prior to reading on an Envision multi-label plate reader (Perkin Elmer; Ex=337 nm, Em=520 and 495 nm). Time-resolved FRET ratios (Em520/Em495) were normalized to controls, plotted as a function of compound concentration and fit with the four-parameter logistic equation to determine IC50s.

What is called IC50 is the point on the concentration scale where inhibition reaches its midpoint. High values mean weaker potency, low ones greater potency.

Structures are written as SMILES.

Chain of NAMPT (P43490 whole entry): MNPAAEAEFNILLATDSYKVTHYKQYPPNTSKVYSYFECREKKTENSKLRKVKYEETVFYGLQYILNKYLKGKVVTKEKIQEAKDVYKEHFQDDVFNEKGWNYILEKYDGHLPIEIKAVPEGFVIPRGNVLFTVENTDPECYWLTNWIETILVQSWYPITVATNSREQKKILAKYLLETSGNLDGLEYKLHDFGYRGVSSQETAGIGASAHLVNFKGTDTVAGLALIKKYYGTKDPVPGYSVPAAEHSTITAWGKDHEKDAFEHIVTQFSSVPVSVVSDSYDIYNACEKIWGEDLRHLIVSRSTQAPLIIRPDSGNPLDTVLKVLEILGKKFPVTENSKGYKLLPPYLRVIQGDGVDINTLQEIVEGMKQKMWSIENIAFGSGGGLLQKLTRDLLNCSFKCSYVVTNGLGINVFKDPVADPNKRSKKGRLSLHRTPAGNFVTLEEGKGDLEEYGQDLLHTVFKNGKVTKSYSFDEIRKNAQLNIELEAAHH

As for `O=C(Nc1ccc(C2CCN(C(=O)C3CCOC3)CC2)cc1)N1CC(c2cccnc2)C1` (centres unmarked) [Example 53, 3-(pyridin-3-yl)-N-{4-[1-(tetrahydrofuran-3-ylcarbonyl)piperidin-4-yl]phenyl}azetidine-1-carboxamide], it took 13.8 nM to reach half-maximal inhibition in the assay on PC3 cells (IC50).
Molecule `O=C(Nc1ccc(C2CCN(C(=O)[C@H]3CCOC3)CC2)cc1)N1CC(c2cccnc2)C1` [Example 159, 3-(pyridin-3-yl)-N-(4-{1-[(3S)-tetrahydrofuran-3-ylcarbonyl]piperidin-4-yl}phenyl)azetidine-1-carboxamide] gave an IC50 with PC3 cells of 74.5 nM.
`O=C(Nc1ccc(C2CCN(C(=O)[C@H]3CCOC3)CC2)cc1)N1CC(c2cnccc2Cl)C1` [Example 160, 3-(4-chloropyridin-3-yl)-N-(4-{1-[(3S)-tetrahydrofuran-3-ylcarbonyl]piperidin-4-yl}phenyl)azetidine-1-carboxamide] came in with an IC50 in the assay with PC3 cells of 639 nM.
`O=C(Nc1ccc(C2CN(CC3CCOC3)C2)cc1)N1CC(c2cccnc2)C1` (centres unmarked) [Example 256, 3-(pyridin-3-yl)-N-{4-[1-(tetrahydrofuran-3-ylmethyl)azetidin-3-yl]phenyl}azetidine-1-carboxamide] yielded an IC50 at NAMPT of 830 nM. That is a sub-micromolar value.
Molecule `O=C(Nc1ccc(C2CCN(C(=O)c3ccccc3)CC2)cc1)N1CC(c2cccnn2)C1` [Example 336, N-[4-(1-benzoylpiperidin-4-yl)phenyl]-3-(pyridazin-3-yl)azetidine-1-carboxamide] gave an IC50 in the assay with PC3 cells of 222 nM. This counts as sub-micromolar.
Still for that read-out and setting: under `O=C(Nc1ccc(C2CCN(C(=O)c3ccccc3F)CC2)cc1)N1CC(c2cccnn2)C1` [Example 337, N-{4-[1-(2-fluorobenzoyl)piperidin-4-yl]phenyl}-3-(pyridazin-3-yl)azetidine-1-carboxamide] stands 55.5 nM; under `Cc1ccccc1C(=O)N1CCC(c2ccc(NC(=O)N3CC(c4cccnn4)C3)cc2)CC1` [Example 338, N-{4-[1-(2-methylbenzoyl)piperidin-4-yl]phenyl}-3-(pyridazin-3-yl)azetidine-1-carboxamide], 587 nM.
On to `CC(C)(C)C(=O)N1CCC(c2ccc(NC(=O)N3CC(c4cccnn4)C3)cc2)CC1` [Example 339, N-{4-[1-(2,2-dimethylpropanoyl)piperidin-4-yl]phenyl}-3-(pyridazin-3-yl)azetidine-1-carboxamide], for which the IC50 in the assay on PC3 cells was 668 nM. This IC50 and that of the molecule before are within 1.5-fold of each other.
Same read-out and setting: for `O=C(Nc1ccc(C2CCN(C(=O)C3CC3)CC2)cc1)N1CC(c2cccnn2)C1` [Example 340, N-{4-[1-(cyclopropylcarbonyl)piperidin-4-yl]phenyl}-3-(pyridazin-3-yl)azetidine-1-carboxamide] the value was 2450 nM.
With `CC(=O)N1CCC(c2ccc(NC(=O)N3CC(c4cccnn4)C3)cc2)CC1` [Example 341, N-[4-(1-acetylpiperidin-4-yl)phenyl]-3-(pyridazin-3-yl)azetidine-1-carboxamide], in the assay with PC3 cells, the IC50 amounted to 8940 nM.
Regarding `CC(C)(C)CC(=O)N1CCC(c2ccc(NC(=O)N3CC(c4cccnn4)C3)cc2)CC1` [Example 342, N-{4-[1-(3,3-dimethylbutanoyl)piperidin-4-yl]phenyl}-3-(pyridazin-3-yl)azetidine-1-carboxamide], half-maximal inhibition with PC3 cells (IC50) was put at 390 nM.
On the same count and under the same terms, for `O=C(Nc1ccc(C2CCN(C(=O)C3CCC3)CC2)cc1)N1CC(c2cccnn2)C1` [Example 343, N-{4-[1-(cyclobutylcarbonyl)piperidin-4-yl]phenyl}-3-(pyridazin-3-yl)azetidine-1-carboxamide] the value was 831 nM.
The same measure, in the same setting: for `O=C(CCC(F)(F)F)N1CCC(c2ccc(NC(=O)N3CC(c4cccnn4)C3)cc2)CC1` [Example 344, 3-(pyridazin-3-yl)-N-{4-[1-(4,4,4-trifluorobutanoyl)piperidin-4-yl]phenyl}azetidine-1-carboxamide] the value was 7670 nM.
In turn, `O=C(CC(F)(F)F)N1CCC(c2ccc(NC(=O)N3CC(c4cccnn4)C3)cc2)CC1` [Example 345, 3-(pyridazin-3-yl)-N-{4-[1-(3,3,3-trifluoropropanoyl)piperidin-4-yl]phenyl}azetidine-1-carboxamide] gave an IC50 with PC3 cells of 1130 nM.

These data come from US9296723B2, “NAMPT inhibitors” (AbbVie Inc., priority 2012, dated 2016).
